Experimental data published in patent US20250369032A1 (priority 2023, published 2025).
“And” between values parts separate entries of the source, which are not always exact repeats. Equal entries are not always repeated. Where two headings read alike, the source gives them in different places.

Assays:
[1] = target: T1, alkaline phosphatase (Bos taurus, UniProt P19111)
Protocol: Two different dosing concentrations were evaluated, 10 μL of test chemical added to 90 μL of alkaline phosphatase reaction reagent and 50 μL of test chemical added to 50 μL of alkaline phosphatase reaction reagent; all aliquoted in 96-well plates.
• 1. Alkaline phosphatase reaction reagent (fresh, 1:100) • a. Take 4 mL of AP (1:10) stock solution, add to 36 mL PBS. Vortex mix and then invert to mix 10 times • 2. Prepare alkaline phosphatase reaction reagent for every condition • a. 200 μL AP (1:10) in 1.8 mL PBS • b. […] 200 μL AP (1:10) in 1.8 mL Acetone • 3. Prepare 96-well plates for dosing • 4. Prepare 96-well plates for PNPP reading (3 wells for each test chemical) • a. Aliquot with 200 μL PNPP
• 1. Set 1 • a. 10 μL chemical added to 90 μL AP reaction reagent • 2. Set 2 • a. 50 μL chemical added to 50 μL AP reaction reagent • 3. Incubate for 3 hours • a. To the prepared 96-well plate with 200 μL PNPP aliquoted, add 20 μL • b. […] To the prepared 96-well plate with 200 μL PNPP aliquoted, add 20 μL • b.
In our next study, we focused on ethanol and buffered saline (potassium chloride, potassium phosphate monobasic, sodium chloride, sodium phosphate dibasic) as our solvents.
• 1. Alkaline phosphatase reaction reagent • a. 1:100 • i. PBS: Take 400 μL of AP (1:10) stock solution, add to 3.6 mL PBS. Vortex mix and then invert to mix 10 times • ii. […] Vortex mix and then invert to mix 10 times • b. 1:1000 • i. PBS: Take 400 μL of AP (1:100) stock solution, add to 3.6 mL PBS. Vortex mix and then invert to mix 10 times • ii. […] Vortex mix and then invert to mix 10 times • 2. Prepare 0.5 mL microcentrifuge tubes for dosing • a. One set for room temperature, one set for 37° C. • 3. Prepare 96-well plates for PNPP reading (3 wells for each test chemical) • a. Aliquot with 200 μL PNPP
• 1. In each microcentrifuge tube for each condition, add 180 μL of the corresponding AP reaction reagent • 2. Add 20 μL of the test chemical to each microcentrifuge tube • 3. Incubate for 4 hours (one set at room temperature; one set at 37° C.) • 4. To prepared 96-well plates with 200 μL PNPP aliquoted, add 20 μL of each microcentrifuge tube to the corresponding well • 5.

[2] = tested on: skin; conditions: cited from earlier work
[3] = target: T1, alkaline phosphatase; type: biochemical; design: purchased Sigma Aldrich, St. Louis, MO P0114 (original source); P7640 (second source, 'new AP' condition only)
[4] = tested on: endogenous skin phosphatase; type: biochemical, porcine; conditions: optical density compared to the naïve condition
Protocol: Our next studies involved applying the test substance (500 μL) directly to the epidermis side of previously frozen porcine skin (Spear Products, Coopersburg, PA) that is placed in a holder that only exposes the epidermis side for 30 minutes, adding phosphate buffered saline (PBS) with added sodium azide (metabolic inhibitor that ensure no viable tissue), then aliquoting into cuvettes to read at an optical density of 300 nm. […] So, at the end of the initial studies described above, almost out of frustration, we tried to probe for released phosphatase activity using p-Nitrophenyl phosphate disodium salt (PNPP; Sigma Aldrich, St. Louis, MO) substrate solution to detect any presence of phosphatase.
• 1. Thaw 2 pieces of frozen porcine skin • a. Punch out as many skin discs and mount in holders • 2. Label cuvettes (3 for each chemical)
• 1. Add 500 μL of test chemical to holder; incubate at room temperate for 30 minutes • 2. After 30 minutes, add 2 mL of PBS-Azide to both the holder containing the test chemical; forcefully pipette and re-pipette 10 times • 3. From the holder, aliquot 400 μL into 3 cuvettes; forcefully pipette and re-pipette 3 times before dispensing into cuvettes
Skin corrosion by GHS Category 1 dermal corrosive chemicals results in the disintegration of the epidermis into the dermis.

[5] = target: T1, alkaline phosphatase; type: biochemical; design: purchased Sigma Aldrich, St. Louis, MO P0114 (original source); P7640 (second source, 'new AP' condition only); remark: listed apart in the source
From the text: Our next study focused on an in vitro method of detecting the potential of dermal corrosives to inhibit nonspecific phosphatases that may be released from the skin. We decided to test pure […] instead of relying on endogenous skin phosphatase. Alkaline phosphatase (Sigma Aldrich, St. Louis, MO) was purchased and suspended to make the reaction reagent (10,000 units). […] We note that the ratio used was 0.1 g/ml or 10% chemical-which is far in excess of any pharmaceutical applications. We further note that pharmaceutical enzyme inhibition tests, studies an use involve highly specific active site binding and these assays are conducted at ratios of micrograms-femtograms per ml. These studies are done at these ranges because these are the realistic concentrations for drug applications and therapeutics. […] So when a 50 Kg human consumes the tables, the tissues will be exposed at a 5 mg/50 kg=0.1 mg/kg=0.0000001 g/ml.
Next two quantitative methods were evaluated: 1) using the discs parts from our OptiSafe™ test method and 2) directly into the 24-well plate.
• 1. Alkaline phosphatase reaction reagent • a. Take 1 vial of AP, add 1 mL of PBS, mix by pipette/re-pipette 10 times • b. To a 50 mL conical tube, add 1 mL of the AP solution prepared above and 40 mL of PBS • 2. Prepare two 24-well plates (1 with discs, 1 without discs) • 3. […] Aliquot 200 μL PNPP and PBS
• 1. Plate 1 (No Discs) • a. Add 1.25 mL from the prepared PBS-AP conical tube to each well (11 wells) • b. Add 100 μL of the test material to the well, mix with the same pipette tip, dispose and repeat for the rest of the test materials • c. Wrap the plate in saran wrap and place into the container • 2. Plate 2 (Discs) • a. Configure the 11 discs in the plate so the plate cover is stable • b. Add 1.25 mL from the prepared PBS-AP conical tube to each well (11 wells) • c. Add 100 μL of the test material to the center of the disc and repeat for the rest of the test materials • d. Put the plate cover on and place into the container • 3. […] Incubate for 1 hour
For the new study, the alkaline phosphatase was suspended in phosphate buffered saline (PBS) to make the reaction reagent. Then, 100 μL of the test chemical is added directly into the corresponding wells on a 24-well plate with 1.25 mL of alkaline phosphatase reaction reagent already aliquoted.
• 1. Alkaline phosphatase reaction reagent • a. Take 1 vial of AP, add 1 mL of PBS, mix by pipette/re-pipette 10 times • b. To a 50 mL conical tube, add 1 mL of the AP solution prepared above and 40 mL of PBS • 2. Prepare two 24-well plates • 3. […] Aliquot with 200 μL PNPP and PBS • 4. Prepare glass vials Repeat Procedure from Jan. […] 24-well plate • a. Add 1.25 mL from the prepared PBS-AP conical tube to each well (11 wells) • b. Add 100 μL of the test material to the well, mix with the same pipette tip, dispose and repeat for the rest of the test materials • c. Wrap the plate in saran wrap and place into the container • 2. […] To the prepared 96-well plate with 200 μL PNPP or PBS, add 20 μL from the 24-well plate • 4. Incubate for 1 hour • 5.
• 1. 24-well plate • a. Add 1.25 mL from the prepared PBS-AP conical tube to each well (11 wells) • b. Add 100 μL of the test material to the well, mix with the same pipette tip, dispose and repeat for the rest of the test materials • c. After 10 minutes, mix each well • 2.

[6] = 4 mL glass vials, 30 μL into 300 μL, 1:100, 4 hours room temperature, 3 mL PNPP 1 hour
[7] = skin, chemical lists of the protocols
[8] = 1:100, 20 μL into 180 μL, 0.5 mL microcentrifuge tubes, 4 hours RT, PNPP 60 min, 405 nm
[9] = average of R1-R3, 1:100, 20 μL into 180 μL, 4 hours RT, PNPP 60 min, 405 nm
[10] = original alkaline phosphatase 1:1, 18 hours room temperature
[11] = original alkaline phosphatase 1:100 (100 units), 100 μL into 1 mL, 18 hours room temperature, PNPP 1 hour

T1 sequence (P19111 20-506): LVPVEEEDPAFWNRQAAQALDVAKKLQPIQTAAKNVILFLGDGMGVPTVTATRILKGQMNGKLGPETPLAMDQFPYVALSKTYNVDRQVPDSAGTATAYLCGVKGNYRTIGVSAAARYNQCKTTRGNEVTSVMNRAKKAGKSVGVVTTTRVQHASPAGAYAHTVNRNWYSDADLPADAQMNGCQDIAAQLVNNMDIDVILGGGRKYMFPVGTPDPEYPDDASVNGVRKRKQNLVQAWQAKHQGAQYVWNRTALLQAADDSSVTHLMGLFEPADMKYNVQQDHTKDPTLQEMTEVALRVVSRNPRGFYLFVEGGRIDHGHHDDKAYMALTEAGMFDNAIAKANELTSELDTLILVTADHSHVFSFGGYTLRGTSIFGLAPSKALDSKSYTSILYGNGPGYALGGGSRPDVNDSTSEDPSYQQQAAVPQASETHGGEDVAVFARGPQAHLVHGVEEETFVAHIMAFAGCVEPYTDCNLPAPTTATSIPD

Compound	OD405 readings (FIG. 11D) [1, 6]	in vivo GHS [2, 7]	A1-Results R1 [3, 8]	A1-Results R3 [3, 8]	OD405 readings (FIG. 11B) [3, 6]	A1-Results AVG [3, 9]	prediction based on OD405 values (FIG. 6B) [3, 10]	OD405 readings (FIG. 6D) [3, 11]	other results
CC(C)N(C)C [Dimethylisopropylamine]	2.926 and 2.922 and 2.852	Cat. 1B/1C	3.423	3.485	3.354 and 3.466 and 3.502	3.458	incorrectly predicted	3.466 and 3.502	
NCCO [Ethanolamine]									Corrosive ([2]; rabbit, in vivo): Yes; percent of phosphatase measured (first reading) [4]: 20.1%; percent of phosphatase measured (second reading) [4]: 19.6%; percent of phosphatase measured, average [4]: 19.9%; optical density readings (FIG. 3A) [3]: 0.170 and 0.166 and 0.172; optical density readings (FIG. 3B) [5]: 0.174 and 0.185 and 0.175
CN(C)Cc1ccccc1 [N,N-Dimethylbenzylamine]									OD405 reading (FIG. 9B) [1]: 0.587; OD405 readings (FIG. 11D) [1]: 3.429 and 3.249 and 3.164; A1-Results AVG [3]: 3.240; A1-Results R1 [3]: 3.265; A1-Results R3 [3]: 3.230; OD405 readings (FIG. 6D) [3]: 3.431 and 3.502 and 3.61; OD405 readings (FIG. 11B) [3]: 3.360 and 3.238 and 3.273; prediction based on OD405 values (FIG. 6B) [3]: incorrectly predicted
CCCCCCCCC=O [Nonyl aldehyde]		Cat. 2 (Category 2 (irritation; mean score of ≥2.3 and ≤4.0 for erythema/eschar or for oedema in at least 2 of 3 tested animals at 24, 48, and 72 hours or inflammation that persists to the end of 14 days))	3.393	3.050		3.296			OD405 reading (FIG. 7A) [1]: 1.589; OD405 reading (FIG. 7B) [1]: 3.078
CCCCCCCC(=O)O [Octanoic Acid]	3.283 and 3.408 and 3.220		0.741	0.860	1.427 and 1.415 and 1.416	0.797	incorrectly predicted	3.462 and 3.491 and 3.333	in vivo GHS ([2]; rabbit, in vivo): Cat. 1B/1C
[K+].[OH-] [Potassium hydroxide (10%)]		Cat. 1B (Category 1B (corrosive responses in at least one animal during exposure period of ≤1 hour))	0.118	0.112		0.114			prediction based on OD405 values (FIG. 6D) ([5]; original alkaline phosphatase 1:100 dilution): correctly predicted; optical density readings (FIG. 4) ([5]; repeat, without discs, 18 hours 37° C., PNPP 1 hour, 405 nm): 0.123 and 0.124
